One molecule from patent US20250387419A1, “PARP INHIBITOR-RESISTANT PATIENT TREATED WITH TH-302” (ASCENTAWITS PHARMACEUTICALS, LTD., priority 2021, published 2025) can be followed below.

“And” between values parts separate entries of the source, which are not always exact repeats. Equal values may be shown once.

Data set [1] is described as follows: Safety (body weight) in BL3325 PDX model. Format: in vivo, mouse. Conditions: Group 2: 50 mg/kg p.o. QD×30. The procedure:
Protocol: Nude female Balb/c mice were subcutaneously inoculated with HuPrime® bladder cancer BL3325 tumor tissue, establishing a human bladder cancer subcutaneous xenograft tumor model. The mice were divided into 6 groups, 6 in each group: 50 mg/kg of the test drug olaparib as a monotherapy (Group 02); 80 mg/kg TH-302 as a monotherapy (Group 03); 40 mg/kg TH-302 as a monotherapy (Group 04); 20 mg/kg TH-302 as a monotherapy (Group 05); 40 mg/kg TH-302 in combination therapy with 50 mg/kg olaparib (Group 06); and a glucose injection solution as a vehicle control (Group 01). The vehicle control group and the TH-302 treatment groups were all administered through tail vein, once weekly for a total of 3 weeks. Olaparib was intragastrically administered once daily for totally 30 days. Routes of administration, doses and regimens for the HuPrime® bladder cancer BL3325 animal model are specifically summarized in Table 20.
Tumor growth of the treatment and control groups on different days in the experiment were recorded and shown in Table 21, and corresponding tumor volume growth curves of the mice in respective groups are shown in FIG. 11. Efficacy evaluation was carried out based on relative tumor proliferation rates and relative tumor growth inhibition rates, and the results of efficacy analysis are summarized in Table 22. Body weight changes of the treatment and control groups after administration were recorded to investigate safety of the groups in the HuPrime® bladder cancer BL3325 subcutaneous model. Body weight change rates of the mice on Day 35 are shown in Table 23, and curves showing body weights of the treatment groups over time are plotted in FIG. 12.

Data set [2] is described as follows: Safety (body weight) in Capan-1 CDX model (3.2). To be noted: Group 2: 100 mg/kg p.o. QD×30. Format: in vivo. The protocol: (§1) Protocol: Nude BALB/c mice were subcutaneously inoculated with human pancreatic cancer Capan-1 cells, establishing a human pancreatic cancer subcutaneous xenograft model. The mice were divided into 7 groups, 6 in each group: 100 mg/kg of the test drug olaparib as a monotherapy (Group 2); 50 mg/kg of TH-302 as a monotherapy (Group 3, QD); 100 mg/kg of TH-302 as a monotherapy (Group 4); 50 mg/kg of TH-302 as a monotherapy (Group 5, QW); 25 mg/kg of TH-302 as a monotherapy (Group 6); 25 mg/kg TH-302 in combination therapy with 100 mg/kg olaparib (Group 7); and 10% anhydrous ethanol+10% polyoxyethylene (35) castor oil+80% glucose injection solution D5W (pH 7.4) as a vehicle control (Group 1). The vehicle control group and the TH-302 test groups were all administered through tail vein injection. The 50 mg/kg TH-302 monotherapy group (Group 3, QD) was administered once daily for 3 consecutive days. After rest for 4 days and two weeks, the mice were again administered daily for another 3 consecutive days. TH-302 in all the 100 mg/kg (Group 4, QW), 50 mg/kg (Group 5, QW) and 25 mg/kg (Group 6, QW) TH-302 monotherapy groups and 25 mg/kg TH-302+100 mg/kg olaparib combination therapy group (Group 7) was administered once weekly for a total of three weeks. The test drug olaparib in all the groups was orally and intragastrically administered once daily for totally 30 days. Routes of administration, doses and regimens for the human pancreatic cancer Capan-1 animal model are specifically summarized in Table 12.
(§2) Tumor growth of the treatment and control groups on different days in the experiment were recorded and shown in Table 13, and corresponding tumor volume growth curves of the mice in respective groups are shown in FIG. 7. Efficacy evaluation was conducted based on relative tumor proliferation rates and relative tumor growth inhibition rates, and the results of efficacy analysis are summarized in Table 14. Body weight changes of the treatment and control groups after administration were recorded to investigate safety of the groups in the human pancreatic cancer Capan-1 subcutaneous model. Body weight change rates of the mice on Day 43 are shown in Table 15, and curves showing body weights of the treatment groups over time are plotted in FIG. 8.

The subject of data set [3] is human pancreatic cancer Capan-1 subcutaneous xenograft model. Description: In-depth efficacy in olaparib-resistant pancreatic cancer Capan-1 CDX model (3.2). The data set is classed as in vivo, mouse. Conditions: Group 2: 100 mg/kg p.o. QD×30. The protocol:
as §1, §2
A relative tumor proliferation rate, denoted as T/C %, is calculated as a relative tumor volume or a tumor weight of a treatment group as a percentage of that of the control group at a certain point of time according to:
T/C %=TRTV/CRTV×100% (where TRTV denotes average RTV of the treatment group; CRTV represents average RTV of the vehicle control group; and RTV=Vt/V0, where V0 is a tumor volume of an animal at the time of randomization, and Vt is a tumor volume of the animal after treatment); or
T/C %=TTW/CTW×100% (where TTW is an average tumor weight of the treatment group at the end of the experiment, and CTW is an average tumor weight of the vehicle control group at the end of the experiment).
A relative tumor growth inhibition rate, denoted as TGI (%), is calculated according to: TGI %=(1−T/C)×100% (where T and C are relative tumor volumes (RTV) or tumor weights (TW) of a treatment group and the control group, respectively, at a particular point of time).

On to `O=C(c1cc(Cc2n[nH]c(=O)c3ccccc23)ccc1F)N1CCN(C(=O)C2CC2)CC1` [olaparib], for which the “Average Body Weight g (x ± S)” value is 21.8 ± 0.5 g in data set [1] (Day 0), 20.9 ± 0.7 g in data set [1] (Day 35), 21.9 ± 0.4 g in data set [2] (Day 6) and 24.2 ± 0.4 g in data set [2] (Day 43). Besides, the “Body Weight Change Rate (%)” value in data set [1] (Day 35) was −4.24% ± 2.93%; in data set [2] (Day 43) it was 10.95% ± 2.07%. The Tumor volume came out at 146.72 mm^3 in data set [3] (Day 6); 223.17 mm^3 in data set [3] (Day 9); 263.96 mm^3 in data set [3] (Day 13); 314.03 mm^3 in data set [3] (Day 16); 373.87 mm^3 in data set [3] (Day 20); 419.26 mm^3 in data set [3] (Day 23). Moreover, the Tumor volume in data set [3] (Day 27) was 518.48 mm^3; in data set [3] (Day 30), 550.33 mm^3; in data set [3] (Day 34) it was 604.32 mm^3; in data set [3] (Day 37), 725.18 mm^3; in data set [3] (Day 41), 767.49 mm^3; in data set [3] (Day 43, 100 mg/kg), 846.86 mm^3 and 846.86 ± 128.85 mm^3. Besides, the “Relative Tumor Volume (x ± S)” value in data set [3] (Day 43) is 5.72 ± 0.54. Besides, the “T/C (%)” value in data set [3] (Day 43) was found to be 62.57%. For the same molecule, the “TGI (%)” value in data set [3] (Day 43) is recorded as 37.43%. Also, the “CR Rate” value in data set [3] (Day 43, complete response, animals/group) is 0/6.
